Patent US6534530B1, “Antipicornaviral compounds and compositions, their pharmaceutical uses, and materials for their synthesis” (Agouron Pharmaceuticals, Inc., priority 1999, dated 2003)
Where two headings read alike, the source gives them in different places.

How the values were obtained:
[1] = target: T1, recombinant rhinovirus 3C protease, serotype 14 (Human rhinovirus 14, UniProt P03303); assay: Inhibition of rhinovirus 3C protease (FRET assay), serotype 14; format: biochemical
T1 construct: Recombinant rhinovirus 3C proteases; made in house
T1 sequence (P03303 1538-1719): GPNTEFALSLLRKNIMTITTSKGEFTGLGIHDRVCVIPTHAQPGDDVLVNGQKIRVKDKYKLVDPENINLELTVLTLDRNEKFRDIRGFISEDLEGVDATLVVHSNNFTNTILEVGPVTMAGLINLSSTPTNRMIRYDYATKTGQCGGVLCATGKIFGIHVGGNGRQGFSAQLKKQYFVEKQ
Description: (§1) Stock solutions (50 mM, in DMSO) of various compounds were prepared; dilutions were in the same solvent. Recombinant rhinovirus 3C proteases (see Birch et al., “Purification of recombinant human rhinovirus 14 3C protease expressed in Escherichia coli,” Protein Expr. Pur. (1995), vol. 6(5), 609-618) from serotypes 14, 16, and 2 were prepared by the following standard chromatographic procedures: (1) ion exchange using Q Sepharose Fast Flow from Pharmacia; (2) affinity chromatography using Affi-Gel Blue from Biorad; and (3) sizing using Sephadex G-100 from Pharmacia. Each assay sample contained 2% DMSO, 50 mM tris pH 7.6, 1 mM EDTA, a test compound at the indicated concentration, approximately 1 μM substrate, and 50-100 nM protease. The kobs/I values were obtained from reactions initiated by addition of enzyme rather than substrate. RVP activity was measured in the fluorescence resonance energy transfer assay. The substrate was (N-terminal) DABCYL-([…]-EDANS. In the uncleaved peptide, the EDANS fluorescence was quenched by the proximal DABCYL moiety. When the peptide was cleaved, the quenching was relieved, and activity was measured as an increase in fluorescence signal. The tabulated data in the column designated kobs/[I] were measured from progress curves in enzyme start experiments.

[2] = system: HRV-14; assay: Antirhinoviral H1-HeLa cell culture assay (XTT), HRV-14; format: cell-based, human rhinovirus
[3] = in vitro; settings: human
[4] = target: T2, rhinovirus 3C protease, HRV-89 (Human rhinovirus A serotype 89, UniProt P07210); assay: Inhibition of rhinovirus 3C protease (FRET assay), serotype 89; format: biochemical, human rhinovirus 89; settings: HRV-89 3C protease
T2 construct: Recombinant rhinovirus 3C proteases
T2 sequence (P07210 1522-1704): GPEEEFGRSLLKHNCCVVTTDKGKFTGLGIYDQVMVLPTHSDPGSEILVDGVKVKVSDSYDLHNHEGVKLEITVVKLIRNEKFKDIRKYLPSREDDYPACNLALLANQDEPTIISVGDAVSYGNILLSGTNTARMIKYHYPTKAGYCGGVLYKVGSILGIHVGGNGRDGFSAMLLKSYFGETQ

[5] = target: T3, recombinant rhinovirus 3C protease, serotype 16 (Human rhinovirus 16, UniProt Q82122); assay: Inhibition of rhinovirus 3C protease (FRET assay), serotype 16; format: biochemical; settings: HRV-16 3C protease
T3 construct: Recombinant rhinovirus 3C proteases; made in house
T3 sequence (Q82122 1511-1693): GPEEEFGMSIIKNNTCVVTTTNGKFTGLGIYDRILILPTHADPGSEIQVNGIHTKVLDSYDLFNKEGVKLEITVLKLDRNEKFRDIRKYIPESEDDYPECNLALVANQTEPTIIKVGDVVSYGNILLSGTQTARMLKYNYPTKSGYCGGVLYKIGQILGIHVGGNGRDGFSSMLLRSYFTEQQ
Description: as §1

[6] = target: T4, recombinant rhinovirus 3C protease, serotype 2 (Human rhinovirus 2, UniProt P04936); assay: Inhibition of rhinovirus 3C protease (FRET assay), serotype 2; format: biochemical; settings: HRV-2 3C protease
T4 construct: Recombinant rhinovirus 3C proteases; made in house
T4 sequence (P04936 1508-1690): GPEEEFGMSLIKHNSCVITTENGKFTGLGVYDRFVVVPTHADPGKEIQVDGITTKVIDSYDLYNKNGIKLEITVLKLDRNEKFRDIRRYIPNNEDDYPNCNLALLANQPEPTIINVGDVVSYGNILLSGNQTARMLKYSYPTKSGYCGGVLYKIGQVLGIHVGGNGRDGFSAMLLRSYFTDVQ
Description: as §1

[7] = system: H1-HeLa cells; assay: Cytotoxicity in mock-infected H1-HeLa cells (antirhinoviral assay, XTT); settings: HRV-14
[8] = system: HRV-16; assay: Antirhinoviral H1-HeLa cell culture assay (XTT), HRV-16; format: cell-based; settings: Human rhinovirus sp., HRV16, HRV-16, H1-HeLa cells
From the text: (1989), vol. 81, 577-586.

[9] = Rhinovirus B, HRV14, HRV-14, H1-HeLa cells

Row | Molecule | Ki [1] [µM] | EC50 [2, 9] [µM] | CC50 at 2 days ([3]; mock-infected H1-HeLa cells) [µM] | also measured
1 | CC(C)C[C@H](NC(=O)OCc1ccccc1)C(=O)N[C@@H](Cc1ccccc1)C(=O)N[C@@H](CCC(N)=O)C(=O)COC(=O)c1c(Cl)cccc1Cl [Compound 27, Cbz-L-Leu-L-Phe-L-Gln-CH2OC(O)-(2,6-dichlorophenyl)] |  |  |  | kinact/KI ([1]; pH 7.6, HRV-14 3C protease, progress curves in enzyme start experiments, read-out: kobs/[I]): 2500 M⁻¹ s⁻¹
2 | CSCC(=O)[C@H](CCC(N)=O)NC(=O)[C@H](Cc1ccccc1)NC(=O)[C@H](CC(C)C)NC(=O)OCc1ccccc1 [Compound 2, Cbz-L-Leu-L-Phe-L-(Gln)-CH2SCH3] | 50 |  |  | 
3 | CC(=O)NC[C@H](NC(=O)[C@H](Cc1ccccc1)NC(=O)[C@H](CC(C)C)NC(=O)OCc1ccccc1)C(=O)C(=O)N1CCCCC1 [Compound 11, Cbz-L-Leu-L-Phe-L-(N-Ac-amino-Ala)-C(O)-Piperidine] | > 110 |  |  | 
4 | CC(C)C[C@H](NC(=O)OCc1ccccc1)C(=O)N[C@@H](Cc1ccccc1)C(=O)N[C@@H](CCC(N)=O)C(=O)c1nc2ccccc2s1 [Compound 20, Cbz-L-Leu-L-Phe-L-Gln-2-Benzthiazole] | 3.5 | 17.4 | > 100 | 
5 | CC(=O)[C@H](C[C@@H]1CCNC1=O)NC(=O)[C@H](Cc1ccccc1)NC(=O)[C@H](CC(C)C)NC(=O)OCc1ccccc1 [Compound 24, Cbz-L-Leu-L-Phe-L-[(S)-Pyrrol-Ala]-CH3] | 0.65 | > 10 | > 10 | 
6 | CC(C)C[C@H](NC(=O)OCc1ccccc1)C(=O)N[C@@H](Cc1ccccc1)C(=O)N[C@@H](C[C@@H]1CCNC1=O)C(=O)c1nccs1 [Compound 22, Cbz-L-Leu-L-Phe-L-[(S)-Pyrrol-Ala]-2-Thiazole] | 0.7 | 7.9 | 240 | melting point: 83 to 85 °C
7 | COCC(=O)[C@H](CNC(C)=O)NC(=O)[C@H](Cc1ccccc1)NC(=O)[C@H](CC(C)C)NC(=O)OCc1ccccc1 [Compound 19, Cbz-L-Leu-L-Phe-L-(N-Ac-amino-Ala)-CH2OCH3] | 27 |  |  | Ki [4]: 20.6 µM; Ki [5]: 27 µM; Ki [6]: 12.9 µM
8 | CC(C)C[C@H](NC(=O)OCc1ccccc1)C(=O)N[C@@H](Cc1ccccc1)C(=O)N[C@@H](C[C@@H]1CCNC1=O)C(=O)c1nc2ccccc2s1 [Compound 21, Cbz-L-Leu-L-Phe-L-[(S)-Pyrrol-Ala]-2-Benzthiazole] | 0.065 | 3.2 | > 320 | melting point: 108 to 111 °C
9 | CC(=O)NC[C@H](NC(=O)[C@H](Cc1ccccc1)NC(=O)[C@H](CC(C)C)NC(=O)OCc1ccccc1)C(=O)COC(=O)c1c(C)cc(C)cc1C [Compound 3, Cbz-L-Leu-L-Phe-L-(N-Ac-amino-Ala)-CH2OC(O)-(2,4,6-trimethylphenyl)] |  | > 25 | 25 | kobs/[I] ([1]; HRV-14 3C protease, progress curves in enzyme start experiments): slow
10 | CC(C)C[C@H](NC(=O)OCc1ccccc1)C(=O)N[C@@H](Cc1ccccc1)C(=O)N[C@@H](CNC(=O)OC(C)(C)C)C(=O)c1nc2ccccc2s1 [Compound 6, Cbz-L-Leu-L-Phe-L-(N-Boc-amino-Ala)-2-Benzthiazole] | 4.8 |  |  | 
11 | CSCC(=O)[C@H](CCC(=O)NC(c1ccccc1)(c1ccccc1)c1ccccc1)NC(=O)[C@H](Cc1ccccc1)NC(=O)[C@H](CC(C)C)NC(=O)OCc1ccccc1 [Compound 1, Cbz-L-Leu-L-Phe-L-(Tr-Gln)-CH2SCH3] | 9 |  |  | 
12 | Cc1cc(CCCOc2c(C)cc(-c3noc(C(F)(F)F)n3)cc2C)on1 [Pleconaril, reference compound] |  | 0.01 | > 10 | 
13 | CNC(=O)C(=O)[C@H](CNC(C)=O)NC(=O)[C@H](Cc1ccccc1)NC(=O)[C@H](CC(C)C)NC(=O)OCc1ccccc1 [Compound 10, Cbz-L-Leu-L-Phe-L-(N-Ac-amino-Ala)-C(O)NHCH3] | 20 | 251 | > 320 | 
14 | Cc1cc(CCCCCOc2c(Cl)cc(C3=NCCO3)cc2Cl)on1 [WIN54954, reference compound] |  |  |  | EC50 ([2]; HRV-14, H1-HeLa cells): 2.13 µM; CC50 [7]: > 63 µM
15 | C#CC(=O)[C@H](CNC(C)=O)NC(=O)[C@H](Cc1ccccc1)NC(=O)[C@H](CNC(C)=O)NC(=O)OCc1ccccc1 [Compound 16] | 0.035 | > 100 | > 100 | 
16 | CC(C)C[C@H](NC(=O)OCc1ccccc1)C(=O)N[C@@H](Cc1ccccc1)C(=O)N[C@@H](C[C@@H]1CCNC1=O)C(=O)c1ccccc1 [Compound 26, Cbz-L-Leu-L-Phe-L-[(S)-Pyrrol-Ala]-Ph] | 3.22 | > 10 | > 10 | 

Row | Molecule | Ki [1] [µM] | EC50 [2, 9] [µM] | CC50 at 2 days ([3]; mock-infected H1-HeLa cells) [µM] | also measured
17 | CC(=O)NC[C@H](NC(=O)[C@H](Cc1ccccc1)NC(=O)[C@H](CC(C)C)NC(=O)OCc1ccccc1)C(=O)COCCc1ccccc1 [Compound 18, Cbz-L-Leu-L-Phe-L-(N-Ac-amino-Ala)-CH2OCH2CH2Ph] | 9.1 | > 20 | 20 | Ki [4]: 14 µM; Ki [5]: 6.7 µM; Ki [6]: 11 µM
18 | Cc1cc(CCCCCCCOc2ccc(C3=NCCO3)cc2)on1 [WIN51711, reference compound] |  |  |  | EC50 ([2]; HRV-14, H1-HeLa cells): 0.78 µM; CC50 [7]: > 60 µM
19 | CC(C)C[C@H](NC(=O)OCc1ccccc1)C(=O)N[C@@H](Cc1ccccc1)C(=O)N[C@@H](CNC(=O)OC(C)(C)C)C(=O)c1ccccn1 [Compound 7, Cbz-L-Leu-L-Phe-L-(N-Boc-amino-Ala)-2-Pyridine] | 71 |  |  | 
20 | CCOC(=O)c1ccc(OCCC2CCN(c3ccc(C)nn3)CC2)cc1 [Pirodavir, reference compound] |  | 0.03 |  | CC50 at 2 days [3]: > 10 µM
21 | C=CC(=O)[C@H](CNC(C)=O)NC(=O)[C@H](Cc1ccccc1)NC(=O)[C@H](CC(C)C)NC(=O)OCc1ccccc1 [Compound 15, Cbz-L-Leu-L-Phe-L-(N-Ac-amino-Ala)-CH=CH2] | 0.098 | > 100 | > 100 | 
22 | CC(C)C[C@H](NC(=O)OCc1ccccc1)C(=O)N[C@@H](Cc1ccccc1)C(=O)N[C@@H](C[C@@H]1CCNC1=O)C(=O)c1cc2ccccc2s1 [Compound 25, Cbz-L-Leu-L-Phe-L-[(S)-Pyrrol-Ala]-2-Benzothiophene] | 4.7 | > 10 | > 10 | 
23 | CC(=O)NC[C@H](NC(=O)[C@H](Cc1ccccc1)NC(=O)[C@H](CC(C)C)NC(=O)OCc1ccccc1)C(=O)c1nc2ccccc2s1 [Compound 9, Cbz-L-Leu-L-Phe-L-(N-Ac-amino-Ala)-2-Benzthiazole] | 1.7 | > 25 | 25 | EC50 [8]: > 25 µM; Ki [4]: 0.48 µM; Ki [5]: 0.31 µM; Ki [6]: 0.9 µM
24 | COCC#CC(=O)[C@H](CNC(C)=O)NC(=O)[C@H](Cc1ccccc1)NC(=O)[C@H](CC(C)C)NC(=O)OCc1ccccc1 [Compound 17, Cbz-L-Leu-L-Phe-L-(N-Ac-amino-AIa)-C≡CCH2OCH3] | 0.075 | > 100 | > 100 | 
25 | CC(=O)NC[C@H](NC(=O)[C@H](Cc1ccccc1)NC(=O)[C@H](CC(C)C)NC(=O)OCc1ccccc1)C(=O)c1nccs1 [Compound 13, Cbz-L-Leu-L-Phe-L-(N-Ac-amino-Ala)-2-Thiazole] | 24 | > 56 | 56 | Ki [5]: 4 µM; Ki [6]: 13.3 µM
26 | Cc1cc(CCCCCCCOc2ccc(C3=N[C@@H](C)CO3)cc2)on1 [WIN52084, reference compound] |  |  |  | EC50 ([2]; HRV-14, H1-HeLa cells): 0.07 µM; CC50 [7]: > 10 µM
27 | CC(=O)NC[C@H](NC(=O)[C@H](Cc1ccccc1)NC(=O)[C@H](CC(C)C)NC(=O)OCc1ccccc1)C(=O)c1ccccn1 [Compound 8, Cbz-L-Leu-L-Phe-L-(N-Ac-amino-Ala)-2-Pyridine] | 80 |  |  | 
28 | CC(=O)NC[C@@H](NC(=O)[C@H](Cc1ccccc1)NC(=O)[C@H](CC(C)C)NC(=O)OCc1ccccc1)C(=O)C(=O)N1CCCCC1 [Compound 12, Cbz-L-Leu-L-Phe-D-(N-Ac-amino-Ala)-C(O)-Piperidine] | 10.7 | 39 |  | 
29 | CC(=O)NC[C@H](NC(=O)[C@H](Cc1ccccc1)NC(=O)[C@H](CC(C)C)NC(=O)OCc1ccccc1)C(C)=O [Compound 5, Cbz-L-Leu-L-Phe-L-(N-Ac-amino-Ala)-CH3] | 138 |  |  | 
30 | Cbz-L-Leu-L-Phe-L-(N-Boc-amino-Ala)-CH3 [Compound 4] |  |  |  | Ki ([1]; HRV-14 3C protease, read-out: Ki): 16.3 µM
31 | CC(C)C[C@H](NC(=O)OCc1ccccc1)C(=O)N[C@@H](Cc1ccccc1)C(=O)N[C@@H](C[C@@H]1CCNC1=O)C(=O)c1ccccn1 [Compound 23, Cbz-L-Leu-L-Phe-L-[(S)-Pyrrol-Ala]-2-Pyridine] | 0.17 | 4 | 200 | 
